Results reported in patent US20250136578A1 (Kolm Therapeutics Inc., priority 2023, published 2025).
Like-named read-outs stand apart in the source and are kept apart here.

What was measured:
AR / CBP ternary complex = AR / CBP ternary complex (Homo sapiens, UniProt P10275+Q92793); assay: Ternary complex formation assay (sandwich ELISA, AR capture, CBP antibody detection) in VCaP cell lysates; type: cell-based
Method in brief: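 VCaP cells in 5% charcoal-stripped FBS were cultured ≥3 days and then given bifunctional compound for 1.5 h. Lysates went onto AR-antibody-coated plates. Bound CBP (or p300) was detected with a rabbit antibody plus HRP anti-rabbit, using QuantaRed chemifluorescence (ex 570/em 585) read immediately, at 5 min and at 15 min.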

VCaP cells = assay: VCaP growth inhibition assay (CTG); type: cell-based; details: Homo sapiens, 216 h, 30 pM R1881, 9 days
Method in brief: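 VCaP cells in phenol red-free DMEM with 5% charcoal-stripped serum were stimulated with 30 pM R1881 (final) and treated with compound from 100 nM to 10 fM final (1:5 dilutions) for 9 days at 37 °C. Viability was read by CellTiter-Glo luminescence, and IC50 came from 4-parameter logistic fits.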

[1] = treated 1.5 hours, rabbit CBP or p300 antibody detection, average, read-out: Average Ternary Complex

Sequence of AR / CBP ternary complex (P10275 whole entry): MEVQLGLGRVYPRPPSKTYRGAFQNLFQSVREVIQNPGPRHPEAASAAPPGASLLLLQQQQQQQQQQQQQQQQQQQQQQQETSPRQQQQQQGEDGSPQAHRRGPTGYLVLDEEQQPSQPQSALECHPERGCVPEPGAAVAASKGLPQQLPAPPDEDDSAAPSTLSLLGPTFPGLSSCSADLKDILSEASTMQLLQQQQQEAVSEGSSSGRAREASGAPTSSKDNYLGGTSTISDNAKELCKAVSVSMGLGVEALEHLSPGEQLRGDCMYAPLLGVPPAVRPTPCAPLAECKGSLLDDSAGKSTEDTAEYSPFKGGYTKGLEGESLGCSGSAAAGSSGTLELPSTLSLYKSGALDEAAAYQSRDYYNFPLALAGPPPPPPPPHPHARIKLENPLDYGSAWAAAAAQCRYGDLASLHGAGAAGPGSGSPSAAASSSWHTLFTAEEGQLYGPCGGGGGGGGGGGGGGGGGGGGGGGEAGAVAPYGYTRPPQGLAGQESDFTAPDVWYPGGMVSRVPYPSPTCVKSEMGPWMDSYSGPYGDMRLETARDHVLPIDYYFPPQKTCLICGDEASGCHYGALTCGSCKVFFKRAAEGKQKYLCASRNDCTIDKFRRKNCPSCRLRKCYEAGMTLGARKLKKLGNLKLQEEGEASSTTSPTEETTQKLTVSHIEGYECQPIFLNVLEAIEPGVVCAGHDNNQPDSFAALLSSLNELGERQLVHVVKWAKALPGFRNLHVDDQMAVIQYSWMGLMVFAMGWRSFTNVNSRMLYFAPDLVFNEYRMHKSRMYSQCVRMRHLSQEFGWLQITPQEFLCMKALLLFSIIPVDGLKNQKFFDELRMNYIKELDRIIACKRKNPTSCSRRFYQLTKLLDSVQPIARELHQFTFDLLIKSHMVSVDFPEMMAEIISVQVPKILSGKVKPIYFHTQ
Sequence of AR / CBP ternary complex (Q92793 2-2442): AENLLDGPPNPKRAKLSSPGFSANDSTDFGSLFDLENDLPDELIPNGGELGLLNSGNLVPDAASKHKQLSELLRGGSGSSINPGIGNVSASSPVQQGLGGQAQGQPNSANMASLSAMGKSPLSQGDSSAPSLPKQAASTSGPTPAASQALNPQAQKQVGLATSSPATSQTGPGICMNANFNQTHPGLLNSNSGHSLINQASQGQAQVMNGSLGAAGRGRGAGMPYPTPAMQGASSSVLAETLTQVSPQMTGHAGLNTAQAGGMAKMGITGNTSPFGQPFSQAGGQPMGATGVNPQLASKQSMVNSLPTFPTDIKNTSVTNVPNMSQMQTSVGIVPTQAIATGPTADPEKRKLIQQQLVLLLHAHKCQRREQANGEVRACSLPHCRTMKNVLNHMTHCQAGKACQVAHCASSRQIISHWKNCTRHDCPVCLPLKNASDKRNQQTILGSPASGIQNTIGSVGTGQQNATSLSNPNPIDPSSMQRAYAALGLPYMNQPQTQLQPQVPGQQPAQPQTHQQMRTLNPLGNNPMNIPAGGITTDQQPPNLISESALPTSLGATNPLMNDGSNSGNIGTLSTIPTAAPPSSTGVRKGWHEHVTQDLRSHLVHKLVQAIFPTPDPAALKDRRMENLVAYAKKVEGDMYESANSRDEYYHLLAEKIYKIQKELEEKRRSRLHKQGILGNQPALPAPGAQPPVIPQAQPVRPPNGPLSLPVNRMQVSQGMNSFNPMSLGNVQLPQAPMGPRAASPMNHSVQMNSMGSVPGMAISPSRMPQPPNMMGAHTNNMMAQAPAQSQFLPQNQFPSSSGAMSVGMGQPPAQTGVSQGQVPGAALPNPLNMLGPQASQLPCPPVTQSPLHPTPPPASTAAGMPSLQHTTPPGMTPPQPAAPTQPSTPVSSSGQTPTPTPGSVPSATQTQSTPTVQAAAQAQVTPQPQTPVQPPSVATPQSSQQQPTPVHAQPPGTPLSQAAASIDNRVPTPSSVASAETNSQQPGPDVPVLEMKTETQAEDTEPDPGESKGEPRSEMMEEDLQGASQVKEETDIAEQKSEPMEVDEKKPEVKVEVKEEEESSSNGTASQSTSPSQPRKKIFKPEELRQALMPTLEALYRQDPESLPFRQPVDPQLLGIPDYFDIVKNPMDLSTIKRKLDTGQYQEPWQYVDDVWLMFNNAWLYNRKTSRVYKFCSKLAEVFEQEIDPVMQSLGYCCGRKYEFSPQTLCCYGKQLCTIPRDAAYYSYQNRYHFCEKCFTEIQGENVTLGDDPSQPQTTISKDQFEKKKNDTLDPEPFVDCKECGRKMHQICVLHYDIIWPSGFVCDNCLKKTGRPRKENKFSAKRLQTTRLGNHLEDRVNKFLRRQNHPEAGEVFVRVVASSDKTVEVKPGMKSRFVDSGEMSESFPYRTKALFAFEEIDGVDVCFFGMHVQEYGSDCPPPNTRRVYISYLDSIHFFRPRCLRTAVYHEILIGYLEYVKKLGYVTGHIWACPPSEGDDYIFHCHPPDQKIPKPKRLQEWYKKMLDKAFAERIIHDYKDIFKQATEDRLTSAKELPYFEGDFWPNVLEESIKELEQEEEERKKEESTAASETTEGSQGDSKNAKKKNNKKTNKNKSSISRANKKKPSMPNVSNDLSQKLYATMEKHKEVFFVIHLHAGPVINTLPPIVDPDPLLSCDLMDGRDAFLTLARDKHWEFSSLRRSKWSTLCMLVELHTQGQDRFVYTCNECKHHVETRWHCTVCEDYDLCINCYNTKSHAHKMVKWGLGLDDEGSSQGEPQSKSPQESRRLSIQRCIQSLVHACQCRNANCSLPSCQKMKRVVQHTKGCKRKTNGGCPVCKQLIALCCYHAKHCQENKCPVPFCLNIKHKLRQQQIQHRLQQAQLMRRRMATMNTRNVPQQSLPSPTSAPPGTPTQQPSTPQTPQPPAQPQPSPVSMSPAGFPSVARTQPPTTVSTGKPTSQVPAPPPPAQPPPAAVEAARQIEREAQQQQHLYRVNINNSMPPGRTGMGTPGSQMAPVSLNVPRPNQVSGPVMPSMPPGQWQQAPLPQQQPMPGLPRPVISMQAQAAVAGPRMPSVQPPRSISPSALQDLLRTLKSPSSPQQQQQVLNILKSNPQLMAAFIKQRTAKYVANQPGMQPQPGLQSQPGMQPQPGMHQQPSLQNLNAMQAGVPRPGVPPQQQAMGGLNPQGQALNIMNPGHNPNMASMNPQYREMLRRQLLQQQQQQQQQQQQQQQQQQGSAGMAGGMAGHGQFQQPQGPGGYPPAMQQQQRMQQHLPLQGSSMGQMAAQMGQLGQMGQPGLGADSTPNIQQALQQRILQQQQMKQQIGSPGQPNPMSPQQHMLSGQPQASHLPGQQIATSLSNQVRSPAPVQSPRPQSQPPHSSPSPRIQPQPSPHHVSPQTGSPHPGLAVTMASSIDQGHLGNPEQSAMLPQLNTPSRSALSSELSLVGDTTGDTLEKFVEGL

SMILES	EC50 (AR / CBP ternary complex; [1]) [nM]	IC50 (VCaP cells) [nM]	EC50 (AR / CBP ternary complex; read-out: Average Ternary Complex, treated 1.5 hours, rabbit CBP or p300 antibody detection) [nM]
CC(=O)N1CCc2c(c(N3CCCc4cc(-c5cnn(C)c5)c(C(F)F)cc43)nn2C2CCN(CCC#Cc3ccc(C(=O)N[C@H]4CC[C@H](Oc5ccc(C#N)c(Cl)c5)CC4)nn3)CC2)C1 [Compound 94, 6-[4-[4-[5-acetyl-3-[7-(difluoromethyl)-6-(1-methylpyrazol-4-yl)-3,4-dihydro-2H-quinolin-1-yl]-6,7-dihydro-4H-pyrazolo[4,3-c]pyridin-1-yl]-1-piperidyl]but-1-ynyl]-N-[4-(3-chloro-4-cyano-phenoxy)cyclohexyl]pyridazine-3-carboxamide]	1 to 10	0.1 to 1	
CC(=O)N1CCc2c(c(-c3cccc4cc(-c5ccc(CCC6CCN(c7ccc(C(=O)N[C@H]8CC[C@H](Oc9ccc(C#N)c(Cl)c9)CC8)nn7)CC6)nc5)ncc34)nn2C)C1 [Compound 20, 6-[4-[2-[5-[8-(5-acetyl-1-methyl-6,7-dihydro-4H-pyrazolo[4,3-c]pyridin-3-yl)-3-isoquinolyl]-2-pyridyl]ethyl]-1-piperidyl]-N-[4-(3-chloro-4-cyano-phenoxy)cyclohexyl]pyridazine-3-carboxamide]	< 1	≤ 0.1	
CC(=O)N1CCc2c(c(N3CCCc4cc(-c5cnn(C)c5)c(C)cc43)nn2C2CCN(CC3CCN(c4ccc(C(=O)N[C@H]5CC[C@H](Oc6ccc(C#N)c(Cl)c6)CC5)nn4)CC3(C)C)CC2)C1 (some centres unmarked) [Compound 282, 6-[4-[[4-[5-acetyl-3-[7-methyl-6-(1-methylpyrazol-4-yl)-3,4-dihydro-2H-quinolin-1-yl]-6,7-dihydro-4H-pyrazolo[4,3-c]pyridin-1-yl]-1-piperidyl]methyl]-3,3-dimethyl-1-piperidyl]-N-[4-(3-chloro-4-cyano-phenoxy)cyclohexyl]pyridazine-3-carboxamide]	< 1	0.1 to 1	
CC(=O)N1CCc2c(c(N3CCCc4cc(-c5cnn(C)c5)c(C(F)F)cc43)nn2C2CCN(C[C@H]3[C@H](C)CN(c4ccc(C(=O)N[C@H]5CC[C@H](Oc6ccc(C#N)c(Cl)c6C)CC5)nn4)C[C@@H]3C)CC2)C1 [Compound 287, 6-[4-[[4-[5-acetyl-3-[7-(difluoromethyl)-6-(1-methylpyrazol-4-yl)-3,4-dihydro-2H-quinolin-1-yl]-6,7-dihydro-4H-pyrazolo[4,3-c]pyridin-1-yl]-1-piperidyl]methyl]-3,5-dimethyl-1-piperidyl]-N-[4-(3-chloro-4-cyano-2-methyl-phenoxy)cyclohexyl]pyridazine-3-carboxamide]	< 1	≤ 0.1	
CC(=O)N1CCc2c(c(-c3cccc4cc(-c5ccc(CCOC6CCN(c7ccc(C(=O)N[C@H]8CC[C@H](Oc9ccc(C#N)c(Cl)c9)CC8)nn7)CC6)nc5)ncc34)nn2C2CCOCC2)C1 [Compound 27, 6-[4-[2-[5-[8-(5-acetyl-1-tetrahydropyran-4-yl-6,7-dihydro-4H-pyrazolo[4,3-c]pyridin-3-yl)-3-isoquinolyl]-2-pyridyl]ethoxy]-1-piperidyl]-N-[4-(3-chloro-4-cyano-phenoxy)cyclohexyl]pyridazine-3-carboxamide]	< 1	0.1 to 1	
CC(=O)N1CCc2c(c(N3CCCc4cc(-c5cnn(C)c5)c(C(F)F)cc43)nn2[C@H]2[C@@H]3C[C@H]2CN(CC2CCN(c4ccc(C(=O)N[C@H]5CC[C@H](Oc6ccc(C#N)c(Cl)c6)CC5)nn4)CC2)C3)C1 [Compound 150, N-[4-(3-chloro-4-cyano-phenoxy)cyclohexyl]-6-[4-[[rac-(1R,5S)-6-[5-acetyl-3-[7-(difluoromethyl)-6-(1-methylpyrazol-4-yl)-3,4-dihydro-2H-quinolin-1-yl]-6,7-dihydro-4H-pyrazolo[4,3-c]pyridin-1-yl]-3-azabicyclo[3.1.1]heptan-3-yl]methyl]-1-piperidyl]pyridazine-3-carboxamide]		0.1 to 1	1 to 10
CC(=O)N1CCc2c(c(N3CCCc4cc(-c5cnn(C)c5)c(C(F)F)cc43)nn2C2CCN(CC3CCN(c4ccc(C(=O)N[C@H]5CC[C@H](Oc6ccc(C#N)c(Cl)c6)CC5)nn4)CC34CC4)CC2)C1 (some centres unmarked) [Compound 231, 6-[8-[[4-[5-acetyl-3-[7-(difluoromethyl)-6-(1-methylpyrazol-4-yl)-3,4-dihydro-2H-quinolin-1-yl]-6,7-dihydro-4H-pyrazolo[4,3-c]pyridin-1-yl]-1-piperidyl]methyl]-5-azaspiro[2.5]octan-5-yl]-N-[4-(3-chloro-4-cyano-phenoxy)cyclohexyl]pyridazine-3-carboxamide]	< 1	≤ 0.1	
Cn1c(=O)sc2ccc(N3CCCc4cc(-c5ccc(CCC6CCN(c7ccc(C(=O)N[C@H]8CC[C@H](Oc9ccc(C#N)c(Cl)c9)CC8)nn7)CC6)nc5)c(C(F)F)cc43)cc21 [Compound 56, N-[4-(3-chloro-4-cyano-phenoxy)cyclohexyl]-6-[4-[2-[5-[7-(difluoromethyl)-1-(3-methyl-2-oxo-1,3-benzothiazol-5-yl)-3,4-dihydro-2H-quinolin-6-yl]-2-pyridyl]ethyl]-1-piperidyl]pyridazine-3-carboxamide]	1 to 10	> 100	
CC(=O)N1CCc2c(c(-c3cccc4cc(-c5cnn(CC6CCN(c7ccc(C(=O)N[C@H]8CC[C@H](Oc9ccc(C#N)c(Cl)c9)CC8)nn7)CC6)c5)ncc34)nn2C2CCOCC2)C1 [Compound 22, 6-[4-[[4-[8-(5-acetyl-1-tetrahydropyran-4-yl-6,7-dihydro-4H-pyrazolo[4,3-c]pyridin-3-yl)-3-isoquinolyl]pyrazol-1-yl]methyl]-1-piperidyl]-N-[4-(3-chloro-4-cyano-phenoxy)cyclohexyl]pyridazine-3-carboxamide]	< 1	≤ 0.1	
CC(=O)N1CCc2c(c(N3CCCc4cc(-c5cnn(C)c5)c(C(F)F)cc43)nn2[C@H]2CC[C@@H](N3CCC4(CC3)CN(c3ccc(C(=O)N[C@H]5CC[C@H](Oc6ccc(C#N)c(Cl)c6)CC5)nn3)C4)CC2)C1 [Compound 192, 6-[7-[4-[5-acetyl-3-[7-(difluoromethyl)-6-(1-methylpyrazol-4-yl)-3,4-dihydro-2H-quinolin-1-yl]-6,7-dihydro-4H-pyrazolo[4,3-c]pyridin-1-yl]cyclohexyl]-2,7-diazaspiro[3.5]nonan-2-yl]-N-[4-(3-chloro-4-cyano-phenoxy)cyclohexyl]pyridazine-3-carboxamide]	< 1	≤ 0.1	

More lines, main results first:

EC50 (AR / CBP ternary complex; [1]) [nM]	IC50 (VCaP cells) [nM]	SMILES	EC50 (AR / CBP ternary complex; read-out: Average Ternary Complex, treated 1.5 hours, rabbit CBP or p300 antibody detection) [nM]
< 1	≤ 0.1	CC(=O)N1CCc2c(c(N3CCCc4cc(-c5cnn(C)c5)c(C(F)F)cc43)nn2C2CCN(C3CC4(CC(Oc5ccc(C(=O)N[C@H]6CC[C@H](Oc7ccc(C#N)c(Cl)c7)CC6)nn5)C4)C3)CC2)C1 (some centres unmarked) [Compound 247, 6-[6-[4-[5-acetyl-3-[7-(difluoromethyl)-6-(1-methylpyrazol-4-yl)-3,4-dihydro-2H-quinolin-1-yl]-6,7-dihydro-4H-pyrazolo[4,3-c]pyridin-1-yl]-1-piperidyl]spiro[3.3]heptan-2-yl]oxy-N-[4-(3-chloro-4-cyano-phenoxy)cyclohexyl]pyridazine-3-carboxamide]	
> 100	> 100	CN1C(=O)CCc2cc(N3CCCc4cc(-c5ccc(CCC6CCN(c7ccc(C(=O)N[C@H]8CC[C@H](Oc9ccc(C#N)c(Cl)c9)CC8)nn7)CC6)nc5)ncc43)ccc21 [Compound 60, N-[4-(3-chloro-4-cyano-phenoxy)cyclohexyl]-6-[4-[2-[5-[1-(1-methyl-2-oxo-3,4-dihydroquinolin-6-yl)-3,4-dihydro-2H-1,7-naphthyridin-6-yl]-2-pyridyl]ethyl]-1-piperidyl] pyridazine-3-carboxamide]	
< 1	≤ 0.1	CC(=O)N1CCc2c(c(N3CCCc4cc(-c5cnn(C)c5)c(C(F)F)cc43)nn2C2CCN([C@@H]3CCN(c4ccc(C(=O)N[C@H]5CC[C@H](Oc6ccc(C#N)c(Cl)c6)CC5)nn4)C[C@@H]3C)CC2)C1 [Compound 200]	
< 1	≤ 0.1	CC(=O)N1CCc2c(c(-c3cccc4cc(-c5ccc(COCC6CCN(c7ccc(C(=O)N[C@H]8CC[C@H](Oc9ccc(C#N)c(Cl)c9)CC8)nn7)CC6)nc5)ncc34)nn2C)C1 [Compound 21, 6-[4-[[5-[8-(5-acetyl-1-methyl-6,7-dihydro-4H-pyrazolo[4,3-c]pyridin-3-yl)-3-isoquinolyl]-2-pyridyl]methoxymethyl]-1-piperidyl]-N-[4-(3-chloro-4-cyano-phenoxy)cyclohexyl]pyridazine-3-carboxamide]	
> 100	> 100	Cc1noc(C)c1-c1ccc2c(c1)nc(C1CCCC(=O)N1c1ccc(F)c(F)c1)n2C1CCN(CC2CCN(c3ccc(C(=O)N[C@H]4CC[C@H](Oc5ccc(C#N)c(Cl)c5)CC4)nn3)CC2)CC1 (some centres unmarked) [Compound 127, N-[4-(3-chloro-4-cyano-phenoxy)cyclohexyl]-6-[4-[[4-[2-[1-(3,4-difluorophenyl)-6-oxo-2-piperidyl]-5-(3,5-dimethylisoxazol-4-yl)benzimidazol-1-yl]-1-piperidyl]methyl]-1-piperidyl]pyridazine-3-carboxamide]	
< 1	≤ 0.1	CC(=O)N1CCc2c(c(N3CCCc4cc(C#N)ncc43)nn2C2CCN(CC3CCN(c4ccc(C(=O)N[C@H]5CC[C@H](Oc6ccc(C#N)c(Cl)c6)CC5)nn4)CC3)CC2)C1 [Compound 68, 6-[4-[[4-[5-acetyl-3-(6-cyano-3,4-dihydro-2H-1,7-naphthyridin-1-yl)-6,7-dihydro-4H-pyrazolo[4,3-c]pyridin-1-yl]-1-piperidyl]methyl]-1-piperidyl]-N-[4-(3-chloro-4-cyano-phenoxy)cyclohexyl]pyridazine-3-carboxamide]	
